How the values were obtained:
[1] = target: T1, HCV NS5B (Hepatitis C virus genotype 1b, UniProt Q9WMX2); assay: HCV NS5B RdRp enzyme assay; type: biochemical; details: HCV NS5B RdRp genotype 1b enzyme
T1 construct: The protein was expressed with an 18 amino acid C-terminal truncation to enhance the solubility; made in house; host or cells: E. coli BL21(DE3)
Procedure: HCV NS5B RdRp cloning, expression, and purification. The cDNA encoding the NS5B protein of HCV, genotype 1b, was cloned into the pET21a expression vector. The protein was expressed with an 18 amino acid C-terminal truncation to enhance the solubility. The E. coli competent cell line BL21(DE3) was used for expression of the protein. Cultures were grown at 37° C. for ˜4 hours until the cultures reached an optical density of 2.0 at 600 nm. The cultures were cooled to 20° C. and induced with 1 mM IPTG. Fresh ampicillin was added to a final concentration of 50 μg/ml and the cells were grown overnight at 20° C.
Cell pellets (3 L) were lysed for purification to yield 15-24 mgs of purified NS5B. The lysis buffer consisted of 20 mM Tris-HCl, pH 7.4, 500 mM NaCl, 0.5% triton X-100, 1 mM DTT, 1 mM EDTA, 20% glycerol, 0.5 mg/ml lysozyme, 10 mM MgCl2, 15 ug/ml deoxyribonuclease I, and Complete™ protease inhibitor tablets (Roche). After addition of the lysis buffer, frozen cell pellets were resuspended using a tissue homogenizer. To reduce the viscosity of the sample, aliquots of the lysate were sonicated on ice using a microtip attached to a Branson sonicator. The sonicated lysate was centrifuged at 100,000×g for 1 hr at 4° C. and filtered through a 0.2 μm filter unit (Corning).
The protein was purified using two sequential chromatography steps: Heparin sepharose CL-6B and polyU sepharose 4B (Pharmacia). The chromatography buffers were identical to the lysis buffer but contained no lysozyme, deoxyribonuclease I, MgCl2 or protease inhibitor and the NaCl concentration of the buffer was adjusted according to the requirements for charging the protein onto the column. Each column was eluted with a NaCl gradient which varied in length from 5-50 column volumes depending on the column type. After the final chromatography step, the resulting purity of the enzyme is >90% based on SDS-PAGE analysis. The enzyme was aliquoted and stored at −80° C.
Standard HCV NS5B RdRp enzyme assay. HCV RdRp genotype 1b assays were run in a final volume of 60 μl in 96 well plates (Corning 3600). The assay buffer is composed of 20 mM Hepes, pH 7.5, 2.5 mM KCl, 2.5 mM MgCl2, 1 mM DTT, 1.6 U RNAse inhibitor (Promega N2515), 0.01 mg/ml BSA (Sigma B6917), and 2% glycerol. All compounds were serially diluted (3-fold) in DMSO and diluted further in water such that the final concentration of DMSO in the assay was 2%. HCV RdRp genotype 1b enzyme was used at a final concentration of 28 nM. A polyA template was used at 6 nM, and a biotinylated oligo-dT12 primer was used at 180 nM final concentration. Template was obtained commercially (Amersham 27-4110). Biotinylated primer was prepared by Sigma Genosys. 3H-UTP was used at 0.6 μCi (0.29 μM total UTP). Reactions were initiated by the addition of enzyme, incubated at 30° C. for 60 min, and stopped by adding 25 μl of 50 mM EDTA containing SPA beads (4 μg/μl, Amersham RPNQ 0007). Plates were read on a Packard Top Count NXT after >1 hr incubation at room temperature.
Modified HCV NS5B RdRp enzyme assay. A modified enzyme assay was performed essentially as described for the standard enzyme assay except for the following: The biotinylated oligo dT12 primer was precaptured on streptavidin-coated SPA beads by mixing primer and beads in assay buffer and incubating at room temperature for one hour. Unbound primer was removed after centrifugation. The primer-bound beads were resuspended in 20 mM Hepes buffer, pH 7.5 and used in the assay at final concentrations of 20 nM primer and 0.67 μg/μl beads. Order of addition in the assay: enzyme (1.75 nM) was added to diluted compound followed by the addition of a mixture of template (0.36 nM), 3H-UTP (0.6 μCi, 0.29 μM), and primer-bound beads, to initiate the reaction; concentrations given are final. Reactions were allowed to proceed for 4 hours at 30° C.
IC50 values for compounds were determined using seven different [I]. […]

[2] = system: HCV replicon cells; assay: HCV replicon FRET / luciferase assay; type: cell-based; details: Hepatitis C virus; 50% reduction in FRET or luciferase activity in HCV replicon cells
Procedure: FRET Assay Preparation. The HCV FRET screening assay was performed in 96-well cell culture plates. The FRET peptide (Anaspec, Inc.) (Taliani et al., Anal. Biochem. 1996, 240, 60-67) contains a fluorescence donor, EDANS, near one end of the peptide and an acceptor, DABCYL, near the other end. The fluorescence of the peptide is quenched by […] resonance energy transfer (RET) between the donor and the acceptor, but as the NS3 protease cleaves the peptide the products are released from RET quenching and the fluorescence of the donor becomes apparent. The assay reagent was made as follows: 5× cell Luciferase cell culture lysis reagent from Promega (#E153A) diluted to 1× with dH2O, NaCl added to 150 mM final, the FRET peptide diluted to 20 μM final from a 2 mM stock.
To prepare plates, HCV replicon cells, with or without a Renilla luciferase reporter gene, were trypsinized and plated in a 96-well plate with titrated test compounds added in columns 3 through 12; columns 1 and 2 contained a control compound (HCV control inhibitor), and the bottom row contained cells with DMSO only. The plates were then placed in a CO2 incubator at 37° C.
Assays. Subsequent to addition of the test compounds described above (FRET Assay Preparation), at various times the plate was removed and Alamar blue solution (Trek Diagnostics, #00-100) was added to measure cellular toxicity. After reading in a Cytoflour 4000 instrument (PE Biosystems), plates were rinsed with PBS and then used for FRET assay by the addition of 30 ul of the FRET peptide assay reagent described above (FRET Assay Preparation) per well. The plate was then placed into the Cytoflour 4000 instrument which had been set to 340 excite/490 emission, automatic mode for up to 20 cycles and the plate read in a kinetic mode. Typically, the signal to noise using an endpoint analysis after the reads was at least three-fold. Alternatively, after Alamar blue reading, plates were rinsed with PBS, then used for luciferase assay using the Promega Dual-Glo Luciferase Assay System or the Promega EnduRen Live Cell Substrate assay.
Compound analysis was performed by quantification of the relative HCV replicon inhibition and the relative cytotoxicity values. To calculate cytoxicity values, the average Alamar Blue fluorescence signals from the control wells were set as 100% non-toxic. The individual signals in each of the compound test wells were then divided by the average control signal and multiplied by 100% to determine […]. To calculate the HCV replicon inhibition values, an average background value was obtained from the two wells containing the highest amount of HCV control inhibitor at the end of the assay period. These numbers were similar to those obtained from naïve Huh-7 cells. The background numbers were then subtracted from the average signal obtained from the control wells and this number was used as 100% activity. The individual signals in each of the compound test wells were then divided by the averaged control values after background subtraction and multiplied by 100% to determine percent activity. EC50 values were calculated as the concentration which caused a 50% reduction in FRET or luciferase activity. The two numbers generated for the compound plate, percent cytoxicity and percent activity, were used to determine compounds of interest for further analysis.

T1 sequence (Q9WMX2 2420-2992): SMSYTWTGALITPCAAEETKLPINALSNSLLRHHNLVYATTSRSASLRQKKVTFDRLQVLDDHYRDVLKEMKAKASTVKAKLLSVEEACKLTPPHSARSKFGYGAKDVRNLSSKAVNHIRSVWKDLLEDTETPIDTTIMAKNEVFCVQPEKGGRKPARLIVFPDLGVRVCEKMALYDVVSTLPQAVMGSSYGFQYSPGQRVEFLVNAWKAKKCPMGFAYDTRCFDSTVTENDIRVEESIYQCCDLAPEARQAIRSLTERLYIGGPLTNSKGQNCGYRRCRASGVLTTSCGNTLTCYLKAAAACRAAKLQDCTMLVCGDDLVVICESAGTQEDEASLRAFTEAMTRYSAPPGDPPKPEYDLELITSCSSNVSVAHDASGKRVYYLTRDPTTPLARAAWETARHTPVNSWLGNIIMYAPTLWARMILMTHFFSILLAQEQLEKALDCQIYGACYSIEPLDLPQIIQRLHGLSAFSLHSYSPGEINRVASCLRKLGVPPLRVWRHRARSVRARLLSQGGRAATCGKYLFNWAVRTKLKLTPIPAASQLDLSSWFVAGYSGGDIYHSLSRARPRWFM

COc1ccc2c(c1)C1CC1(C(=O)N1C3CCC1CN(C)C3)Cn1c-2c(C2CCCCC2)c2ccc(C(=O)NC(C)(C)C(=O)N(C)C)cc21 (stereo not drawn)
IC50 [1]: 4.2 to 500 nM
EC50 [2]: 4.2 to 500 nM

COc1ccc2c(c1)C1CC1(C(=O)N1C3CCC1CN(C)C3)Cn1c-2c(C2CCCCC2)c2ccc(C(=O)NS(=O)(=O)C3(Cc4ccccc4)CC3)cc21 (stereo not drawn)
IC50 [1]: 4.2 to 500 nM
EC50 [2]: 4.2 to 500 nM

CCC#CCC1(S(=O)(=O)NC(=O)c2ccc3c(C4CCCCC4)c4n(c3c2)CC2(C(=O)N3C5CCC3CN(C)C5)CC2c2cc(OC)ccc2-4)CC1 (stereo not drawn)
IC50 [1]: 4.2 to 500 nM
EC50 [2]: 4.2 to 500 nM

COc1ccc2c(c1)C1CC1(C(=O)N1C3CCC1CN(C)C3)Cn1c-2c(C2CCCCC2)c2ccc(C(=O)NS(=O)(=O)C3([Si](C)(C)C)CC3)cc21 (stereo not drawn)
IC50 [1]: 4.2 to 500 nM
EC50 [2]: 4.2 to 500 nM

COc1ccc2c(c1)C1CC1(C(=O)N1C3CCC1CN(C)C3)Cn1c-2c(C2CCCCC2)c2ccc(C(=O)NS(=O)(=O)C3(C(=O)c4ccccc4)CC3)cc21 (stereo not drawn)
IC50 [1]: 4.2 to 500 nM
EC50 [2]: 4.2 to 500 nM

COc1ccc2c(c1)C1CC1(C(=O)N1C3CCC1CN(C)C3)Cn1c-2c(C2CCCCC2)c2ccc(C(=O)NS(=O)(=O)c3ccccc3C#N)cc21 (stereo not drawn)
IC50 [1]: 4.2 to 500 nM
EC50 [2]: 4.2 to 500 nM

COCCS(=O)(=O)NC(=O)c1ccc2c(C3CCCCC3)c3n(c2c1)CC1(C(=O)N2C4CCC2CN(C)C4)CC1c1cc(OC)ccc1-3 (stereo not drawn)
IC50 [1]: 4.2 to 500 nM
EC50 [2]: 4.2 to 500 nM

COc1ccc2c(c1)C1CC1(C(=O)N1C3CCC1CN(C)C3)Cn1c-2c(C2CCCCC2)c2ccc(C(=O)NS(=O)(=O)c3ccco3)cc21 (stereo not drawn)
IC50 [1]: 4.2 to 500 nM
EC50 [2]: 4.2 to 500 nM

COc1ccc2c(c1)C1CC1(C(=O)N1C3CCC1CN(C)C3)Cn1c-2c(C2CCCCC2)c2ccc(C(=O)NS(=O)(=O)C3(C(=O)Nc4ccccc4)CC3)cc21 (stereo not drawn)
IC50 [1]: 4.2 to 500 nM
EC50 [2]: 4.2 to 500 nM

COc1ccc2c(c1)C1CC1(C(=O)N1C3CCC1CN(C)C3)Cn1c-2c(C2CCCCC2)c2ccc(C(=O)NS(=O)(=O)c3c(C)noc3C)cc21 (stereo not drawn)
IC50 [1]: 4.2 to 500 nM
EC50 [2]: 4.2 to 500 nM

COc1ccc2c(c1)C1CC1(C(=O)N1C3CCC1CN(C)C3)Cn1c-2c(C2CCCCC2)c2ccc(C(=O)NS(=O)(=O)c3cn(C)cn3)cc21 (stereo not drawn)
IC50 [1]: 4.2 to 500 nM
EC50 [2]: 4.2 to 500 nM

COc1ccc2c(c1)C1CC1(C(=O)N1C3CCC1CN(C)C3)Cn1c-2c(C2CCCCC2)c2ccc(C(=O)NS(=O)(=O)c3ccc(C)cn3)cc21 (stereo not drawn)
IC50 [1]: 4.2 to 500 nM
EC50 [2]: 4.2 to 500 nM

COc1ccc2c(c1)C1CC1(C(=O)N1C3CCC1CN(C)C3)Cn1c-2c(C2CCCCC2)c2ccc(C(=O)NS(=O)(=O)c3ccccc3)cc21 (stereo not drawn)
IC50 [1]: 4.2 to 500 nM
EC50 [2]: 4.2 to 500 nM

COc1ccc2c(c1)C1CC1(C(=O)N1C3CCC1CN(C)C3)Cn1c-2c(C2CCCCC2)c2ccc(C(=O)NS(=O)(=O)c3cnccc3Cl)cc21 (stereo not drawn)
IC50 [1]: 4.2 to 500 nM
EC50 [2]: 4.2 to 500 nM

C=CCC1(S(=O)(=O)NC(=O)c2ccc3c(C4CCCCC4)c4n(c3c2)CC2(C(=O)N3C5CCC3CN(C)C5)CC2c2cc(OC)ccc2-4)CC1 (stereo not drawn)
IC50 [1]: 4.2 to 500 nM
EC50 [2]: 4.2 to 500 nM

COc1ccc2c(c1)C1CC1(C(=O)N1C3CCC1CN(C)C3)Cn1c-2c(C2CCCCC2)c2ccc(C(=O)NS(=O)(=O)c3cccs3)cc21 (stereo not drawn)
IC50 [1]: 4.2 to 500 nM
EC50 [2]: 4.2 to 500 nM

COc1ccc2c(c1)C1CC1(C(=O)N1C3CCC1CN(C)C3)Cn1c-2c(C2CCCCC2)c2ccc(C(=O)NS(=O)(=O)CC3CCCO3)cc21 (stereo not drawn)
IC50 [1]: 4.2 to 500 nM
EC50 [2]: 4.2 to 500 nM

COc1ccc2c(c1)C1CC1(C(=O)N1C3CCC1CN(C)C3)Cn1c-2c(C2CCCCC2)c2ccc(C(=O)NS(=O)(=O)C3CCOCC3)cc21 (stereo not drawn)
IC50 [1]: 4.2 to 500 nM
EC50 [2]: 4.2 to 500 nM

COc1ccc2c(c1)C1CC1(C(=O)N1C3CCC1CN(C)C3)Cn1c-2c(C2CCCCC2)c2ccc(C(=O)NS(=O)(=O)Cc3ccccc3)cc21 (stereo not drawn)
IC50 [1]: 4.2 to 500 nM
EC50 [2]: 4.2 to 500 nM

COc1ccc2c(c1)C1CC1(C(=O)N1C3CCC1CN(C)C3)Cn1c-2c(C2CCCCC2)c2ccc(C(=O)NS(=O)(=O)N3CCCO3)cc21 (stereo not drawn)
IC50 [1]: 4.2 to 500 nM
EC50 [2]: < 70 nM

COc1ccc2c(c1)C1CC1(C(=O)N1C3CCC1CN(C)C3)Cn1c-2c(C2CCCCC2)c2ccc(C(=O)NS(=O)(=O)c3ccc(C)cc3OC)cc21 (stereo not drawn)
IC50 [1]: 4.2 to 500 nM
EC50 [2]: 4.2 to 500 nM

COc1ccc2c(c1)C1CC1(C(=O)N1C3CCC1CN(C)C3)Cn1c-2c(C2CCCCC2)c2ccc(C(=O)NS(=O)(=O)c3nc(C(C)(C)C)cs3)cc21 (stereo not drawn)
IC50 [1]: 4.2 to 500 nM
EC50 [2]: 4.2 to 500 nM

COc1ccc2c(c1)C1CC1(C(=O)N1C3CCC1CN(C)C3)Cn1c-2c(C2CCCCC2)c2ccc(C(=O)NS(=O)(=O)C3(C)CC3)cc21 (stereo not drawn)
IC50 [1]: 4.2 to 500 nM
EC50 [2]: 4.2 to 500 nM

C=C(C)S(=O)(=O)NC(=O)c1ccc2c(C3CCCCC3)c3n(c2c1)CC1(C(=O)N2C4CCC2CN(C)C4)CC1c1cc(OC)ccc1-3 (stereo not drawn)
IC50 [1]: 4.2 to 500 nM
EC50 [2]: 4.2 to 500 nM

COc1ccc2c(c1)C1CC1(C(=O)N1C3CCC1CN(C)C3)Cn1c-2c(C2CCCCC2)c2ccc(C(=O)NS(=O)(=O)c3cccc4cccnc34)cc21 (stereo not drawn)
IC50 [1]: 4.2 to 500 nM
EC50 [2]: 4.2 to 500 nM

COCCS(=O)(=O)NC(=O)c1ccc2c(C3CCCCC3)c3n(c2c1)C[C@@]1(C(=O)N2C4CCC2CN(C)C4)C[C@H]1c1cc(OC)ccc1-3
IC50 [1]: 4.2 to 500 nM
EC50 [2]: 4.2 to 500 nM

COc1ccc2c(c1)[C@@H]1C[C@]1(C(=O)N1C3CCC1CN(C)C3)Cn1c-2c(C2CCCCC2)c2ccc(C(=O)NS(=O)(=O)CC3CCCO3)cc21 (stereo partly drawn)
IC50 [1]: 4.2 to 500 nM
EC50 [2]: 4.2 to 500 nM
